The values below come from ChEMBL document CHEMBL5055660, “In vitro activity of N-phenyl-1,10-phenanthroline-2-amines against tachyzoites and bradyzoites of Toxoplasma gondii” (Bioorg Med Chem, 2021).

Structures are written as SMILES. Calls of active or inactive are those of the source. The rule behind the calls is not given here.

In series [1] the test system is Toxoplasma gondii. Briefly: Anti-bradyzoite activity against Toxoplasma gondii ESG reporter strain infected in NHDF cells assessed as induction of cyst formation measured after 5 days under alkaline condition by TEM analysis. The class given is functional, organism-based. Particulars: time 5.0 day.
Series [2] relates to Toxoplasma gondii. Briefly: Induction of cell death in RFP-expressing Toxoplasma gondii RH Type 1 assessed as DNA fragmentation at 156 nM after 72 hrs by immunoblotting analysis. The class given is functional, organism-based.
Series [3] concerns Toxoplasma gondii. Briefly: Anti-tachyzoite activity against RFP-expressing Toxoplasma gondii RH Type 1 infected in NHDF cells assessed as plaque formation at 0.156 uM incubated for 96 hrs followed by removal of medium containing compounds and subsequent addition of fresh medium without compounds and measured after 8 days by crystal violet staining based optical microscopic analysis. The format is functional, organism-based.

Series [4] in a line: Selectivity index, ratio of CC50 for cytotoxicity against NHDF cells to ED50 for Anti-tachyzoite activity against RFP-expressing Toxoplasma gondii RH Type 1 infected in NHDF cells. Particulars: human; read-out: Selectivity Index. The format is toxicity, cell-based.
In series [5] the test system is Toxoplasma gondii. Briefly: Induction of cytoplasmic vacuolization in RFP-expressing Toxoplasma gondii RH Type 1 at 156 nM after 72 hrs by TEM analysis. The class given is functional, organism-based.
Series [6] concerns Toxoplasma gondii. Briefly: Anti-tachyzoite activity against RFP-expressing Toxoplasma gondii RH Type 1 infected in NHDF cells assessed as inhibition of parasite proliferation measured after 72 hrs by fluorescence plate reader. Particulars: RH Type 1, NHDF, read-out: ED50 (the source's name). The class given is functional.
For series [7], the system named is Toxoplasma gondii. Briefly: Induction of nuclear fragmentation in RFP-expressing Toxoplasma gondii RH Type 1 at 156 nM after 72 hrs by TEM analysis. The class given is functional, organism-based. Particulars: NHDF.
In series [8] the test system is Toxoplasma gondii. Briefly: Induction of mitochondria swelling in RFP-expressing Toxoplasma gondii RH Type 1 at 156 nM after 72 hrs by TEM analysis. The class given is functional, organism-based. Particulars: NHDF.
Series [9] deals with Toxoplasma gondii. Briefly: Anti-bradyzoite activity against Toxoplasma gondii ESG reporter stain infected in NHDF cells assessed as parasitic infection at 0.625 uM measured after 60 days by optical microscopic analysis. The class given is functional, organism-based. Particulars: time 60.0 day.
Series [10] relates to Toxoplasma gondii. Briefly: Induction of vacuole formation in Toxoplasma gondii ESG reporter strain infected in NHDF cells assessed as increase in BAG positive vacuole number pretreated with PYR for 3 days followed by compound treatment and further incubated for 4 days. The class given is functional, organism-based. Particulars: time 4.0 day.
The subject of series [11] is Toxoplasma gondii. Briefly: Anti-tachyzoite activity against RFP-expressing Toxoplasma gondii RH Type 1 infected in NHDF cells assessed as inhibition of plaque formation at 0.312 uM when host cells pretreated for 3 days followed by infection and removal of medium containing compounds and subsequent addition of fresh medium without compounds and measured after 7 days by crystal violet staining based optical microscopic analysis. Particulars: time 3.0 day. The class given is functional, organism-based.

Series [12] deals with Toxoplasma gondii. Briefly: Anti-tachyzoite activity against RFP-expressing Toxoplasma gondii RH Type 1 infected in NHDF cells assessed as inhibition of parasite proliferation measured after 96 hrs by fluorescence plate reader. The format is functional. Particulars: RH Type 1, NHDF, read-out: ED50 (the source's name).
Series [13] relates to Toxoplasma gondii. Briefly: Anti-bradyzoite activity against Toxoplasma gondii ESG reporter strain infected in NHDF cells assessed as increase in BAG-positive vacuole number at 0.625 uM pretreated with PYR for 3 days followed by compound treatment and further incubated for 4 days. The class given is functional, organism-based. Particulars: time 4.0 day.
Series [14] is described as follows: Cytotoxicity against NHDF cells assessed as reduction in cell viability measured after 96 hrs by MTS assay. Particulars: human. The format is cell-based.
Series [15] relates to Toxoplasma gondii. Briefly: Anti-bradyzoite activity against Toxoplasma gondii ESG reporter stain infected in NHDF cells assessed as parasite proliferation at 0.325 uM measured after 30 days by optical microscopic analysis. The format is functional, organism-based. Particulars: time 30.0 day.
Series [16] deals with Toxoplasma gondii. Briefly: Anti-tachyzoite activity against RFP-expressing Toxoplasma gondii RH Type 1 infected in NHDF cells assessed as inhibition of plaque formation at 0.312 uM incubated for 96 hrs followed by removal of medium containing compounds and subsequent addition of fresh medium without compounds and measured after 8 days by crystal violet staining based optical microscopic analysis. The class given is functional, organism-based.

In series [17] the test system is Toxoplasma gondii. Briefly: Anti-bradyzoite activity against Toxoplasma gondii ESG reporter strain infected in NHDF cells assessed as morphological alteration at 0.625 uM measured after 5 days under alkaline condition by TEM analysis. Particulars: time 5.0 day. The format is functional, organism-based.
The subject of series [18] is Toxoplasma gondii. Briefly: Anti-tachyzoite activity against RFP-expressing Toxoplasma gondii RH Type 1 infected in NHDF cells assessed as destruction of host cells at 1 uM incubated for 96 hrs followed by removal of medium containing compounds and subsequent addition of fresh medium without compounds and measured after 8 days by crystal violet staining based optical microscopic analysis. The class given is functional, organism-based.

In series [19] the test system is Toxoplasma gondii. Briefly: Anti-tachyzoite activity against RFP-expressing Toxoplasma gondii RH Type 1 infected in NHDF cells assessed as plaque formation at 2 uM incubated for 96 hrs followed by removal of medium containing compounds and subsequent addition of fresh medium without compounds and measured after 8 days by crystal violet staining based optical microscopic analysis. The format is functional, organism-based.

The test system of series [20] is Toxoplasma gondii. Briefly: Anti-bradyzoite activity against Toxoplasma gondii ESG reporter strain infected in NHDF cells assessed as cell lysis at 2 uM measured after 21 days. The class given is functional, organism-based. Particulars: time 21.0 day.
The test system of series [21] is Toxoplasma gondii. Briefly: Induction of stage conversion in Toxoplasma gondii ESG reporter strain at 1 uM. The class given is functional, organism-based.
Series [22] concerns Toxoplasma gondii. Briefly: Induction of stage conversion in Toxoplasma gondii ESG reporter strain at 2 uM. The format is functional, organism-based.
The test system of series [23] is Toxoplasma gondii. Briefly: Anti-bradyzoite activity against Toxoplasma gondii ESG reporter stain infected in NHDF cells assessed as parasite proliferation at 4 uM measured after 30 days by optical microscopic analysis. The format is functional, organism-based. Particulars: time 30.0 day.
In series [24] the test system is Toxoplasma gondii. Briefly: Anti-bradyzoite activity against Toxoplasma gondii ESG reporter strain infected in NHDF cells assessed as induced cyst formation at 2 uM measured after 5 days under alkaline condition by TEM analysis. The format is functional, organism-based. Particulars: time 5.0 day.
In series [25] the test system is Toxoplasma gondii. Briefly: Anti-tachyzoite activity against RFP-expressing Toxoplasma gondii RH Type 1 infected in NHDF cells assessed as plaque formation at 4 uM incubated for 96 hrs followed by removal of medium containing compounds and subsequent addition of fresh medium without compounds and measured after 8 days by crystal violet staining based optical microscopic analysis. The class given is functional, organism-based.

Series [26] deals with Toxoplasma gondii. Briefly: Induction of stage conversion in Toxoplasma gondii ESG reporter strain at 4 uM. The class given is functional, organism-based.
For series [27], the system named is Toxoplasma gondii. Briefly: Anti-bradyzoite activity against Toxoplasma gondii ESG reporter stain infected in NHDF cells assessed as viable cells recovery causing host cell lysis at 2 uM measured after 15 days by optical microscopic analysis. The class given is functional, organism-based. Particulars: time 15.0 day.
The subject of series [28] is Toxoplasma gondii. Briefly: Anti-bradyzoite activity against Toxoplasma gondii ESG reporter strain infected in NHDF cells assessed as increase in BAG-positive vacuole number at 2 uM pretreated with PYR for 3 days followed by compound treatment and further incubated for 4 days. The class given is functional, organism-based. Particulars: time 4.0 day.
The subject of series [29] is Toxoplasma gondii. Briefly: Anti-bradyzoite activity against Toxoplasma gondii ESG reporter stain infected in NHDF cells assessed as viable cells recovery causing host cell lysis at 1 uM measured after 15 days by optical microscopic analysis. The class given is functional, organism-based. Particulars: time 15.0 day.
In series [30] the test system is Toxoplasma gondii. Briefly: Induction of morphological changes in Toxoplasma gondii ESG reporter strain at 10 uM. The class given is functional, organism-based.
Series [31] deals with Toxoplasma gondii. Briefly: Anti-bradyzoite activity against Toxoplasma gondii ESG reporter strain infected in NHDF cells assessed as cell lysis measured after 21 days. The class given is functional, organism-based. Particulars: time 21.0 day.
The subject of series [32] is Toxoplasma gondii. Briefly: Anti-bradyzoite activity against Toxoplasma gondii ESG reporter stain infected in NHDF cells assessed as parasite proliferation at 10 uM measured after 30 days by optical microscopic analysis. The format is functional, organism-based. Particulars: time 30.0 day.
In series [33] the test system is Toxoplasma gondii. Briefly: Anti-tachyzoite activity against RFP-expressing Toxoplasma gondii RH Type 1 infected in NHDF cells assessed as inhibition of plaque formation at 10 uM incubated for 96 hrs followed by removal of medium containing compounds and subsequent addition of fresh medium without compounds and measured after 8 days by crystal violet staining based optical microscopic analysis. The class given is functional, organism-based.

Series [34] concerns Toxoplasma gondii. Briefly: Anti-tachyzoite activity against RFP-expressing Toxoplasma gondii RH Type 1 infected in NHDF cells assessed as viable cells recovery causing host cell lysis at 5 uM incubated for 96 hrs followed by removal of medium containing compounds and subsequent addition of fresh medium without compounds and measured after 8 days by crystal violet staining based optical microscopic analysis relative to control. The format is functional.

In general, CC50 refers to the concentration that lowers cell viability or growth by half. In the case of `c1ccc2c(Nc3ccc4ccc5cccnc5c4n3)cccc2c1`, the outcome in the series on Toxoplasma gondii [1], with Toxoplasma gondii [2], in the series on Toxoplasma gondii [3], in the series on Toxoplasma gondii [5], in the series on Toxoplasma gondii [7] and in the series with Toxoplasma gondii [8] was Active. The outcome with Toxoplasma gondii [10], in the series with Toxoplasma gondii [11], in the series with Toxoplasma gondii [13], in the series on Toxoplasma gondii [15], in the series with Toxoplasma gondii [16] and in the series on Toxoplasma gondii [17] was Active. In addition, the selectivity ratio in [4] was determined as 114. The EC50 in the series on Toxoplasma gondii [6] is 0.24 µM; in the series with Toxoplasma gondii [12], 0.15 µM. Also, the outcome in the series on Toxoplasma gondii [9] was inactive. Moreover, the CC50 at 96 h in series [14] is 11.4 µM.
For the molecule `CCc1nc(N)nc(N)c1-c1ccc(Cl)cc1`, the outcome in the series with Toxoplasma gondii [18], with Toxoplasma gondii [19], in the series with Toxoplasma gondii [20], with Toxoplasma gondii [21], with Toxoplasma gondii [22] and in the series on Toxoplasma gondii [23] was Active. The outcome in the series on Toxoplasma gondii [24], with Toxoplasma gondii [25], in the series with Toxoplasma gondii [26], with Toxoplasma gondii [27] and with Toxoplasma gondii [28] was Active.
`O=C1C(O)=C([C@H]2CC[C@H](c3ccc(Cl)cc3)CC2)C(=O)c2ccccc21`: the outcome with Toxoplasma gondii [29], in the series with Toxoplasma gondii [30], in the series on Toxoplasma gondii [18], in the series with Toxoplasma gondii [21], in the series with Toxoplasma gondii [31] and in the series on Toxoplasma gondii [32] was Active. For the same molecule, in the series on Toxoplasma gondii [33], the result was Active.
On to `N#Cc1ccc(Nc2ccc3ccc4cccnc4c3n2)cc1`, for which the Activity in the series on Toxoplasma gondii [34] is 100%. The outcome in the series on Toxoplasma gondii [31] was Active. Besides, the selectivity ratio in [4] was 21. Moreover, the EC50 in the series with Toxoplasma gondii [6] was 1.06 µM; in the series on Toxoplasma gondii [12], 1.66 µM. Moreover, the 50% cytotoxic concentration (CC50) at 96 h in [14] stood at 31 µM.
